“And” between values parts separate entries of the source, which are not always exact repeats. Equal entries are not always repeated. Where two headings read alike, the source gives them in different places.
How the values were obtained:
Assay in all cases: MTT assay for 7-day toxicity assay
Format in all cases: cell-based
[1] = tested on: Colon HCT116 (MMR mutated); details: Homo sapiens, HCT-116, 168 h, Colon HCT116 (MMR mutated); 7-day MTT; single determinations; read-out: GI50
Procedure: (§1) The cell culture techniques were carried out in a Class II microbiological safety cabinet which was swabbed with 70% IMS in distilled water before each use. Glioma cells were routinely cultured in Costar tissue culture flasks in RPMI 1640 liquid medium (containing 0.3 g/L L-glutamine and 2 g/L sodium bicarbonate) supplemented with 10% heat inactivated FBS (55-59° C.) for 1 hour to denature complement proteins which would otherwise evoke a cellular immune response resulting in cell lysis, 1% non-essential amino acids, 50 μg/mL gentamicin and 400 μg/mL G418 (vector selected reagent). Colorectal and melanoma cells were maintained in RPMI 1640 supplemented with 10% FBS. MRC-5 cells were cultured in EMEM. Cells were grown in a humidified incubator containing 5% CO2 at 37° C. Cells were sub-cultured when growth exceeded approximately 80% confluence, normally twice weekly. The medium was aspirated from the flask and approximately 0.8 mL trypsin-EDTA 1× solution added. The cells were re-incubated at 37° C. until they visibly detached from the flask. The cell suspension was then re-suspended in 5 mL medium and 0.5-1 mL of the cell suspension was transferred to a new flask (25 cm^2) with 7 mL culture medium. The cells were further incubated at 37° C. incubator. Cells were disposed after passage nearly 30 times in order to minimize phenotypic drift. New batches of cells were taken from liquid nitrogen storage by thawing rapidly (37° C. water bath) and re-suspension in a 25 cm^2 flask with 10 mL of culture medium. Two passages were allowed to resume normal growth. For long-term maintenance, viable cells at 60-80% confluence were detached by minimum amount of trypsin/EDTA and re-suspended in sterile filtered freezing medium (95% FBS, 5% DMSO), transferred to sterile cryogenic vials, and frozen overnight at −20° C. followed by −80° C. for 1-2 days and stored in liquid nitrogen for long term storage.
(§2) Most test compounds, including temozolomide, were prepared as stock solution (100 mM) in DMSO and stored at −20° C. for not more than 6 months.
(§3) This assay was first described in Mosmann, T., 1983, “Rapid colorimetric assay for cellular growth and survival: Application to proliferation and cytotoxicity assays”, Journal of Immunological Methods, Vol. 65, Nos. 1-2, pp. 55-63.
(§4) Glioma cell lines, SNB19 and U373, both MGMT transfected (i.e., SNB19M and U373M) and vector controls (i.e., SNB19V and U373V); colorectal carcinoma cell lines, HCT116, HT29, and DLD1; melanoma cell line, SKMEL-28; breast cell line, MCF-7; and normal human fetal lung fibroblast cell line, MRC-5; were harvested at 60-80% confluence—during the logarithmic phase of growth.
(§5) Following harvesting, cells in suspension were gently syringed through a 23 gauge needle to obtain a near-single cell suspension. The desired cell seeding densities were used and added into 96-well plates in 180 μL culture medium if only one test compound was to be added, or 160 μL if two test compounds were to be added in combination, which were allowed to attach at 37° C. (5% CO2) overnight. For the 7 day assay, the cell seeding density for different cell lines was as follows: SNB19V, SNB19M: 650 cells/well; U373V, U373M: 650 cells/well; SNB19VR, U373VR: 650 cells/well; HCT116, DLD-1, SKMEL-28, MRC-5, MCF-7: 400 cells/well.
(§6) The two peripheral lanes were used as blank wells (cell free) and filled with 200 μL of medium in order to minimise medium evaporation from the plate. A separate time zero (T0) plate was set up alongside other plates. Serial dilutions in tissue culture medium of a 100 mM stock of test compound in DMSO were prepared immediately before each assay to ten times the final concentrations required, and then 20 μL was added to each well (200 μL total media per well) to achieve final concentrations of 0.5 μM, 1 μM, 5 μM, 10 μM, 50 μM, 100 μM, 500 μM, and 1000 μM. A minimum of four wells received the same test compound concentration. […]

[2] = tested on: Melanoma SKMEL-28 (MMR proficient); details: Homo sapiens, SK-MEL-28, 168 h, Melanoma SKMEL-28 (MMR proficient); 7-day MTT; single determinations; read-out: GI50
Procedure: as §1, §2, §3, §4, §5, §6

[3] = tested on: Colon HT29 (MMR proficient); details: Homo sapiens, HT-29, 168 h, Colon HT29 (MMR proficient); 7-day MTT; single determinations; read-out: GI50
Procedure: as §1, §2, §3, §4, §5, §6

[4] = tested on: Glioma SNB19V (MGMT−); details: Glioma SNB19V (MGMT−)
Procedure: as §1, with “Glioma cells were routinely cultured in Costar tissue culture flasks in RPMI 1640 liquid medium (containing 0.3 g/L L-glutamine and 2 g/L sodium bicarbonate) supplemented with 10% heat inactivated FBS (55-59° C.) for 1 hour to denature complement proteins which would otherwise evoke a cellular immune response resulting in cell lysis, 1% non-essential amino acids, 50 μg/mL gentamicin and 400 μg/mL G418 (vector selected reagent). Colorectal and melanoma cells were maintained in RPMI 1640 supplemented with 10% FBS.” left out
as §2, §4, §5
(§7) The two peripheral lanes were used as blank wells (cell free) and filled with 200 μL of medium in order to minimise medium evaporation from the plate. A separate time zero (T0) plate was set up alongside other plates. Serial dilutions in tissue culture medium of a 100 mM stock of test compound in DMSO were prepared immediately before each assay to ten times the final concentrations required, and then 20 μL was added to each well (200 μL total media per well) to achieve final concentrations of 0.5 μM, 1 μM, 5 μM, 10 μM, 50 μM, 100 μM, 500 μM, and 1000 μM. A minimum of four wells received the same test compound concentration. To control wells, including those in the T0 plate, 20 μL of medium was added. […] A separate plate treated in the same way, but free of test compound, was used as a measure of cell viability at the time of drug addition (day 0).
(§8) After incubation at 37° C., 5% CO2 for 7 days (or immediately for the day 0 plate), cell viability was quantified using the MTT assay. 50 μL of sterile filtered MIT (3-(4,5-dimethylthiazol-2-yl)-2,5-diphenyltetrazolium bromide) (2 mg/mL in phosphate buffered saline) were added to each well (final concentration 0.4 mg/mL) and the plates were re-incubated for 4 hours to allow metabolic conversion of MTT by dehydrogenases in viable cells to insoluble formazan crystals.
(§9) The intensity of absorbance is directly proportional to cell viability.

[5] = tested on: Glioma U373M (MGMT+); details: Glioma U373M (MGMT+)
Procedure: as §1, with “Glioma cells were routinely cultured in Costar tissue culture flasks in RPMI 1640 liquid medium (containing 0.3 g/L L-glutamine and 2 g/L sodium bicarbonate) supplemented with 10% heat inactivated FBS (55-59° C.) for 1 hour to denature complement proteins which would otherwise evoke a cellular immune response resulting in cell lysis, 1% non-essential amino acids, 50 μg/mL gentamicin and 400 μg/mL G418 (vector selected reagent). Colorectal and melanoma cells were maintained in RPMI 1640 supplemented with 10% FBS.” left out
as §2, §4, §5, §7, §8, §9

[6] = tested on: Glioma U373V (MGMT low); details: Glioma U373V (MGMT low)
Procedure: as §1, with “Glioma cells were routinely cultured in Costar tissue culture flasks in RPMI 1640 liquid medium (containing 0.3 g/L L-glutamine and 2 g/L sodium bicarbonate) supplemented with 10% heat inactivated FBS (55-59° C.) for 1 hour to denature complement proteins which would otherwise evoke a cellular immune response resulting in cell lysis, 1% non-essential amino acids, 50 μg/mL gentamicin and 400 μg/mL G418 (vector selected reagent). Colorectal and melanoma cells were maintained in RPMI 1640 supplemented with 10% FBS.” left out
as §2, §4, §5, §7, §8, §9

[7] = tested on: Glioma SNB19M (MGMT+); details: Glioma SNB19M (MGMT+)
Procedure: as §1, with “Glioma cells were routinely cultured in Costar tissue culture flasks in RPMI 1640 liquid medium (containing 0.3 g/L L-glutamine and 2 g/L sodium bicarbonate) supplemented with 10% heat inactivated FBS (55-59° C.) for 1 hour to denature complement proteins which would otherwise evoke a cellular immune response resulting in cell lysis, 1% non-essential amino acids, 50 μg/mL gentamicin and 400 μg/mL G418 (vector selected reagent). Colorectal and melanoma cells were maintained in RPMI 1640 supplemented with 10% FBS.” left out
as §2, §4, §5, §7, §8, §9

[8] = 168 h, 7-day MTT, single determinations, read-out: GI50
[9] = 7-day MTT, single determinations, read-out: GI50

| SMILES | GI50 [4, 8] [µM] | GI50 [4, 9] [µM] | GI50 [5, 8] [µM] | GI50 [5, 9] [µM] | GI50 [6, 8] [µM] | GI50 [6, 9] [µM] | GI50 [7, 8] [µM] | GI50 [7, 9] [µM] | other results |
| --- | --- | --- | --- | --- | --- | --- | --- | --- | --- |
| COc1cc(Cn2nnc3c(C(N)=O)ncn3c2=O)cc(OC)c1OC [AA-002, 4-Oxo-3-(3,4,5-trimethoxybenzyl)-3,4-dihydroimidazo[5,1-d][1,2,3,5]tetrazine-8-carboxamide] |  |  |  |  |  |  |  |  | GI50 [1]: 393 µM; GI50 [2]: 293 µM; GI50 [3]: 128 µM |
| NC(=O)c1ncn2c(=O)n(CC3CCCC3)nnc12 [GG-002, 3-(Cyclopentyl)methyl-8-carbamoylimidazotetrazin-4-one] | 888 | 751 | 642 | 728 | 790 | > 1000 | 796 | 602 |  |
| CNC(=O)Cn1nnc2c(C(N)=O)ncn2c1=O [JJ-002, N-Methyl (8-Carbamoyl-oxoimidazo[5,1-d][1,2,3,5]tetrazin-3(4H)-yl)ethanamide] | 73.5 | 58.1 | 306 | 221 | 234 | 287 | 258 | 235 |  |
| CN(C)C(=O)Cn1nnc2c(C(N)=O)ncn2c1=O [JJ-003, N,N-Dimethyl (8-Carbamoyl-oxoimidazo[5,1-d][1,2,3,5]tetrazin-3(4H)-yl)ethanamide] | 73.6 | 61.8 | 98.6 | 86.4 | 92.4 | 77.8 | 78.6 | 68.1 |  |
| NC(=O)c1ncn2c(=O)n(CC(=O)N3CCOCC3)nnc12 [JJ-005, N-(8-Carbamoyl-oxoimidazo[5,1-d][1,2,3,5]tetrazin-3(4H)-yl)ethanoyl morpholine] | 70.3 | 52.4 | 90.4 | 173 | 195 | 291 | 119 | 84.9 |  |
| CSCCn1nnc2c(C(N)=O)ncn2c1=O [KK-002, 3-(2-Methylsulfanyl-ethyl)-4-oxo-3,4-dihydro-imidazo[5,1-d][1,2,3,5]tetrazine-8-carboxylic acid amide] | 288 | 321 | 229 | 286 | 152 | 300 | 304 | 259 |  |
| NC(=O)c1ncn2c(=O)n(CCC(=O)O)nnc12 [LL-001, 3-(8-Carbamoyl-oxoimidazo[5,1-d][1,2,3,5]tetrazin-3(4H)-yl)propanoic acid] | 356 | 355 | 236 | 281 | 234 | 248 | 397 | 232 |  |
| CC(=O)OCn1nnc2c(C(N)=O)ncn2c1=O [LL-005] | 56.6 | 40.1 | 45.6 | 33.3 | 15.7 | 8 | 46 | 34.7 |  |
| CC(C)(C)[Si](C)(C)OCCn1nnc2c(C(N)=O)ncn2c1=O [NN-001, 3-(2-(tert-Butyldimethylsilyloxy)ethyl)-4-oxo-3,4-dihydroimidazo[5,1-d][1,2,3,5]tetrazine-8-carboxamide] |  |  |  |  |  |  |  |  | GI50 [4]: 128 µM and 97 µM; GI50 [5]: 98.2 µM and 68.3 µM; GI50 [6]: 172 µM and 229 µM; GI50 [7]: 182 µM and 263 µM |
| NC(=O)c1ncn2c(=O)n(CCO)nnc12 [NN-002, 3-(2-Hydroxyethyl)-4-oxo-3,4-dihydroimidazo[5,1-d][1,2,3,5]tetrazine-8-carboxamide] |  |  |  |  |  |  |  |  | GI50 [4]: 200 µM and 210 µM; GI50 [5]: 248 µM and 398 µM; GI50 [6]: 209 µM and 368 µM; GI50 [7]: 396 µM and 437 µM |
| CC(C)n1nnc2c(C(N)=O)ncn2c1=O [PP-001, 3-Isopropyl-8-carbamoylimidazotetrazin-4-one] |  |  |  |  |  |  |  |  | GI50 ([4]; read-out: GI50): > 1000 µM; GI50 ([5]; read-out: GI50): 427 µM and 657 µM; GI50 ([6]; read-out: GI50): 387 µM and 580 µM; GI50 ([7]; read-out: GI50): > 1000 µM and 753 µM |
